Source: the supplement of paper PMC11061612

Columns and labels:
Assay in all cases: Bliss excess, mean over the matrix (fraction); higher = more synergy
[1] = test system: SW780 (Bladder Carcinoma)
Procedure, shortened: (§1)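 Bliss excess equals the observed combination effect minus the expected value EA + EB − EA·EB, where EA and EB are the effects of each agent alone. Combination Emax is the second-highest inhibition within the matrix. Inhibition was scaled from CellTiter-Glo 2.0 luminescence, with 0 set by vehicle wells and 1 by blank wells, after 72 hours of two-drug dosing of cells plated in 1536-well plates.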

[2] = test system: KARPAS-620 (Plasma Cell Myeloma)
Procedure, shortened: as §1

[3] = test system: MDA-MB-231 (Breast Carcinoma)
Procedure, shortened: as §1

[4] = test system: CFPAC-1 (Pancreatic Carcinoma)
Procedure, shortened: as §1

ES7 (Ewing's Sarcoma) = test system: ES7 (Ewing's Sarcoma)
Procedure, shortened: as §1

[5] = test system: 697 (B-Lymphoblastic Leukemia)
Procedure, shortened: as §1

[6] = test system: JiyoyeP-2003 (Burkitt's Lymphoma)
Procedure, shortened: as §1

[7] = test system: KARPAS-1106P (B-Cell Non-Hodgkin's Lymphoma)
Procedure, shortened: as §1

[8] = test system: COR-L23 (Non-Small Cell Lung Carcinoma)
Procedure, shortened: as §1

[9] = test system: LU-99A (Non-Small Cell Lung Carcinoma)
Procedure, shortened: as §1

[10] = test system: SW1783 (Low Grade Glioma)
Procedure, shortened: as §1

RH-1 (Ewing's Sarcoma) = test system: RH-1 (Ewing's Sarcoma)
Procedure, shortened: as §1

SK-N-FI (Neuroblastoma) = test system: SK-N-FI (Neuroblastoma)
Procedure, shortened: as §1

[11] = test system: TE-5 (Esophageal Squamous Cell Carcinoma)
Procedure, shortened: as §1

[12] = test system: C3A (Hepatocellular Carcinoma)
Procedure, shortened: as §1

[13] = test system: NCI-H1694 (Small Cell Lung Carcinoma)
Procedure, shortened: as §1

NCI-H2595 (Mesothelioma) = test system: NCI-H2595 (Mesothelioma)
Procedure, shortened: as §1

[14] = test system: KM-H2 (Hodgkin's Lymphoma)
Procedure, shortened: as §1

[15] = test system: SNU-C5 (Colorectal Carcinoma)
Procedure, shortened: as §1

DSH1 (Bladder Carcinoma) = test system: DSH1 (Bladder Carcinoma)
Procedure, shortened: as §1

Structure (SMILES) | Bliss excess [1] | Bliss excess [2] | Bliss excess [3] | Bliss excess [4] | Bliss excess (ES7 (Ewing's Sarcoma)) | Bliss excess [5] | Bliss excess [6] | Bliss excess [7] | Bliss excess [8] | Bliss excess [9] | Bliss excess [10] | Bliss excess (RH-1 (Ewing's Sarcoma)) | Bliss excess (SK-N-FI (Neuroblastoma)) | Bliss excess [11] | Bliss excess [12] | Bliss excess [13] | Bliss excess (NCI-H2595 (Mesothelioma)) | Bliss excess [14] | Bliss excess [15] | Bliss excess (DSH1 (Bladder Carcinoma))
CCN(CCO)CCCOc1ccc2c(Nc3cc(CC(=O)Nc4cccc(F)c4)[nH]n3)ncnc2c1 [AZD2811] + C[C@@H]1COCCN1C2=NC(=NC(=C2)C3(CC3)[S@](=N)(=O)C)C4=C5C=CNC5=NC=C4 [AZD6738] (first compound max 1 µM, 7x7, partner max 10 µM) | -0.0262 | -0.0121 | -0.103 | -0.0932 | -0.0482 | 0.0013 | 0.0773 | -0.0713 | -0.0192 | -0.0732 | -0.0501 | -0.0414 | -0.0625 | -0.0582 | -0.0117 | -0.0073 | -0.0491 | -0.0249 | -0.0418 | 0.02
CCN(CCO)CCCOc1ccc2c(Nc3cc(CC(=O)Nc4cccc(F)c4)[nH]n3)ncnc2c1 [AZD2811] + O=C(c1cc(Cc2n[nH]c(=O)c3ccccc23)ccc1F)N1CCN(C(=O)C2CC2)CC1 [Olaparib] (first compound max 1 µM, 7x7, partner max 10 µM) | 0.02 | 0.0273 | -0.0175 | 0.0077 | -0.0184 | 0.0165 | 0.0809 | -0.0229 | -0.016 | -0.0181 | -0.0423 | -0.0451 | -0.0001 | -0.0181 | -0.0495 | 0.0406 | 0.0072 | 0.0789 | -0.0041 | 0.0082
CN(CCO)CC[C@H](CSc1ccccc1)Nc1ccc(S(=O)(=O)NC(=O)c2ccc(N3CCC([C@@H](O)c4ccccc4-c4ccc(Cl)cc4)CC3)cc2)cc1S(=O)(=O)C(F)(F)F [AZD4320] + C1CN(CCC1(C(=O)N[C@@H](CCO)C2=CC=C(C=C2)Cl)N)C3=NC=NC4=C3C=CN4 [Capivasertib] (first compound max 1 µM, 7x7, partner max 3 µM) | -0.053 | 0.0032 | -0.0517 | -0.0527 | 0.0083 | -0.0179 | 0.0157 | -0.0259 | -0.0254 | -0.0693 | -0.119 | 0.0468 | -0.0158 | -0.0068 | -0.0904 | 0.0202 | -0.0458 | -0.0205 | -0.067 | -0.0038
CN(CCO)CC[C@H](CSc1ccccc1)Nc1ccc(S(=O)(=O)NC(=O)c2ccc(N3CCC([C@@H](O)c4ccccc4-c4ccc(Cl)cc4)CC3)cc2)cc1S(=O)(=O)C(F)(F)F [AZD4320] + C=CCn1c(=O)c2cnc(Nc3ccc(N4CCN(C)CC4)cc3)nc2n1-c1cccc(C(C)(C)O)n1 [AZD1775] (first compound max 1 µM, partner max 1 µM) | 0.0079 | -0.0125 | 0.0551 | -0.0373 | 0.136 | 0.0545 | 0.0154 | 0.028 | -0.006 | 0.0007 | 0.0433 | 0.0413 | -0.0331 | 0.0773 | -0.0619 | 0.0834 | -0.0113 | -0.006 | -0.0062 | 0.0646
CN(CCO)CC[C@H](CSc1ccccc1)Nc1ccc(S(=O)(=O)NC(=O)c2ccc(N3CCC([C@@H](O)c4ccccc4-c4ccc(Cl)cc4)CC3)cc2)cc1S(=O)(=O)C(F)(F)F [AZD4320] + CCN(CCO)CCCOc1ccc2c(Nc3cc(CC(=O)Nc4cccc(F)c4)[nH]n3)ncnc2c1 [AZD2811] (first compound max 1 µM, 7x7, partner max 1 µM) | 0.028 | 0.0899 | 0.0602 | -0.0754 | 0.0493 | 0.0021 | 0.057 | 0.0326 | -0.0343 | 0.0564 | -0.0701 | -0.0551 | -0.022 | 0.0379 | -0.0487 | 0.169 | -0.032 | -0.0035 | 0.0121 | 0.0821
CN(CCO)CC[C@H](CSc1ccccc1)Nc1ccc(S(=O)(=O)NC(=O)c2ccc(N3CCC([C@@H](O)c4ccccc4-c4ccc(Cl)cc4)CC3)cc2)cc1S(=O)(=O)C(F)(F)F [AZD4320] + CN(C)CCCOc1ccc(-c2ccc3ncc4c(c3c2)n(C2CCOCC2)c(=O)n4C)cn1 [AZD0156] (first compound max 1 µM, 7x7, partner max 1 µM) | -0.0392 | 0.0092 | 0.0319 | -0.0354 | 0.0177 | -0.0116 | -0.0211 | -0.0055 | -0.0231 | -0.006 | -0.0298 | -0.024 | -0.0252 | -0.0135 | -0.0281 | 0.0791 | -0.0348 | -0.0038 | 0.0125 | 0.0303
CN(CCO)CC[C@H](CSc1ccccc1)Nc1ccc(S(=O)(=O)NC(=O)c2ccc(N3CCC([C@@H](O)c4ccccc4-c4ccc(Cl)cc4)CC3)cc2)cc1S(=O)(=O)C(F)(F)F [AZD4320] + C[C@@H]1COCCN1C2=NC(=NC(=C2)C3(CC3)[S@](=N)(=O)C)C4=C5C=CNC5=NC=C4 [AZD6738] (first compound max 1 µM, 7x7, partner max 10 µM) | -0.0478 | -0.0028 | -0.0571 | -0.0077 | 0.0638 | 0.013 | -0.0334 | -0.0301 | -0.0468 | -0.0464 | -0.106 | 0.0321 | -0.0299 | 0.0256 | -0.016 | 0.0238 | -0.0222 | 0.0381 | -0.0131 | 0.0405
CN(CCO)CC[C@H](CSc1ccccc1)Nc1ccc(S(=O)(=O)NC(=O)c2ccc(N3CCC([C@@H](O)c4ccccc4-c4ccc(Cl)cc4)CC3)cc2)cc1S(=O)(=O)C(F)(F)F [AZD4320] + C[C@@H](Nc1cc(F)cc(F)c1)c1cc(C(=O)N(C)C)cc2c(=O)cc(N3CCOCC3)oc12 [AZD8186] (first compound max 1 µM, 7x7, partner max 3 µM) | 0.0084 | 0.0147 | 0.0174 | 0.0585 | 0.136 | -0.003 | 0.0195 | 0.0758 | -0.0063 | -0.0296 | -0.0348 | 0.0588 | -0.0165 | -0.0144 | 0.0183 | 0.0454 | 0.0344 | 0.0237 | -0.0704 | -0.0381
CN(CCO)CC[C@H](CSc1ccccc1)Nc1ccc(S(=O)(=O)NC(=O)c2ccc(N3CCC([C@@H](O)c4ccccc4-c4ccc(Cl)cc4)CC3)cc2)cc1S(=O)(=O)C(F)(F)F [AZD4320] + Cc1cc2ncnn2cc1Nc1ncc2c(n1)n(C1CCOCC1)c(=O)n2C [AZD7648] (first compound max 1 µM, 7x7, partner max 10 µM) | -0.0578 | 0.0178 | -0.0082 | -0.0345 | -0.0455 | -0.0305 | -0.0322 | 0.0101 | -0.0348 | -0.0522 | -0.044 | -0.0018 | -0.0203 | -0.033 | -0.0546 | 0.0357 | -0.0214 | -0.0231 | -0.0257 | -0.0266
CN(CCO)CC[C@H](CSc1ccccc1)Nc1ccc(S(=O)(=O)NC(=O)c2ccc(N3CCC([C@@H](O)c4ccccc4-c4ccc(Cl)cc4)CC3)cc2)cc1S(=O)(=O)C(F)(F)F [AZD4320] + Cn1cnc2c(F)c(Nc3ccc(Br)cc3Cl)c(C(=O)NOCCO)cc21 [Selumetinib] (first compound max 1 µM, 7x7, partner max 3 µM) | 0.0441 | 0.0613 | -0.0013 | 0.0453 | 0.026 | 0.0943 | 0.0288 | -0.0007 | 0.0645 | 0.0878 | -0.0419 | 0.0015 | 0.0296 | 0.0377 | 0.141 | 0.0042 | 0.04 | 0.0106 | 0.0837 | -0.0405
COc1nnc2ccc(N3CCC(c4ccc(OCCN5CCN(C)C(=O)[C@H]5C)cc4)CC3)nn12 [AZD5153] + C=CCn1c(=O)c2cnc(Nc3ccc(N4CCN(C)CC4)cc3)nc2n1-c1cccc(C(C)(C)O)n1 [AZD1775] (first compound max 1 µM, partner max 1 µM) | -0.0163 | -0.0559 | -0.0768 | -0.119 | -0.0364 | -0.0478 | -0.0401 | -0.0966 | -0.0459 | -0.02 | -0.0531 | -0.0406 | -0.105 | -0.0148 | 0.0547 | -0.0205 | -0.0353 | -0.101 | -0.0291 | -0.132
